Test results taken from PubChem BioAssay (NCI).
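Method: 48-hour compound exposure of cells in 96-well plates, five concentrations, linear interpolation of endpoints. GI50 = concentration required for 50% inhibition of growth. Definition used: TGI = concentration required for complete inhibition of growth.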 Where a SMILES comes first, the peptide text is derived from it. [ ]: non-standard residue; d: D form. The star is where a group is joined. Cbz = O=C(OCc1ccccc1)*; Aib = CC(C)(N)C(=O)O

Experiments:
Experiment in all cases: NCI tumour cell line growth inhibition, 48 h
K-562 leukemia = test system: K-562 leukemia
786-0 renal = test system: 786-0 renal
NCI-H226 lung = test system: NCI-H226 lung
A498 renal = test system: A498 renal
RXF 393 renal = test system: RXF 393 renal
SK-OV-3 ovarian = test system: SK-OV-3 ovarian
HCT-15 colon = test system: HCT-15 colon
NCI-H23 lung = test system: NCI-H23 lung
MDA-MB-435 = test system: MDA-MB-435
BT-549 breast = test system: BT-549 breast

Row | SMILES | TGI (K-562 leukemia) [µM] | TGI (786-0 renal) [µM] | TGI (NCI-H226 lung) [µM] | TGI (A498 renal) [µM] | TGI (RXF 393 renal) [µM] | TGI (SK-OV-3 ovarian) [µM] | TGI (HCT-15 colon) [µM] | TGI (NCI-H23 lung) [µM] | GI50 (MDA-MB-435) [µM] | TGI (MDA-MB-435) [µM] | TGI (BT-549 breast) [µM]
1 | OC(CCl)CN1CC[N+]2(CC1)CC[N+]1(CCN(CC(O)CCl)CC1)CC2 (configuration not stated) | > 50 | > 50 | > 50 | > 50 | > 50 | > 50 | > 50 | > 50 | – | – | –
2 | CC(C)(C)CC(C)(C)NCC(O)COc1ccc(C(C)(C)c2ccc(OCC(O)CNC(C)(C)CC(C)(C)C)cc2)cc1 (configuration not stated) | 1.16 | 2.77 | 3.51 | 3.03 | 2.75 | 3.24 | 2.69 | 3.14 | 0.513 | 1.73 | –
3 | O=C(O)c1cccc(S(=O)(=O)NN2C(=O)CSC2c2c(O)ccc3ccccc23)c1 (configuration not stated) | > 100 | > 100 | > 100 | 46.2 | 89.1 | > 100 | > 100 | 51.1 | – | > 100 | –
4 | CC1C(c2ccccc2)NC(c2ccccc2)CC1(N)C#N (configuration not stated) | > 100 | > 100 | > 100 | – | > 100 | > 100 | > 100 | > 100 | – | > 100 | > 100
5 | COc1ccc(C2=NN(c3nsc4ccccc34)C(=O)CC2)cc1 | > 100 | – | – | – | > 100 | – | > 100 | > 100 | – | – | –
6 | CC1=NN2CCC(=O)N=C2S1 | > 100 | > 100 | > 100 | – | > 100 | > 100 | > 100 | > 100 | – | > 100 | > 100
7 | Cc1ccc2c(=O)cc(-c3cccc(F)c3)[nH]c2n1 | > 100 | > 100 | 0.475 | – | > 100 | – | – | 0.739 | – | 0.0224 | –
8 | CCN(CCC#N)C(=O)Nc1ccccc1 | > 100 | > 100 | > 100 | – | > 100 | > 100 | > 100 | > 100 | – | > 100 | > 100
9 | COc1ccc(/C=C2\OC(=O)C(Cl)=C2c2ccc(OC)c(Cl)c2)cc1 | > 100 | 35.5 | – | 39.1 | 29.5 | > 100 | > 100 | 44.9 | – | 59.9 | –
10 | CSc1nc(-c2ccccc2)nc(=[N+]2CCOCC2)s1 | > 100 | > 100 | > 100 | > 100 | > 100 | > 100 | > 100 | > 100 | – | – | –
11 | Nc1ncc2c(n1)-c1ccccc1OC2 | > 100 | – | > 100 | > 100 | > 100 | > 100 | > 100 | > 100 | – | – | –
12 | CCCCCCCCCCCCCCCCCCNc1nc(=O)n(C2CC(OP(=O)(O)OCC3OC(n4cc(F)c(=O)[nH]c4=O)CC3O)C(CO)O2)cc1F (configuration not stated) | > 100 | > 100 | > 100 | > 100 | 63 | > 100 | > 100 | > 100 | – | > 100 | –
13 | Nc1ccc(C(=O)O)cc1 | > 100 | > 100 | > 100 | – | – | – | 52 | > 100 | – | > 100 | –
14 | Cc1ccc(C(=O)N/N=C(\N=Nc2ccccc2C(=O)O)c2ccc(N(C)C)cc2)cc1 | > 100 | > 100 | > 100 | – | – | – | > 100 | > 100 | – | > 100 | > 100
15 | O=S(=O)(O)c1cc(N=[N+]([O-])c2ccc(N=Nc3ccccc3)cc2S(=O)(=O)O)ccc1/C=C/c1ccc(N=[N+]([O-])c2ccc(N=Nc3ccccc3)cc2S(=O)(=O)O)cc1S(=O)(=O)O | > 100 | – | > 100 | > 100 | > 100 | > 100 | > 100 | > 100 | – | – | –
16 | COC(=N)CCCl | > 100 | > 100 | > 100 | – | > 100 | > 100 | > 100 | > 100 | – | – | > 100
17 | CC(C)(NC(=O)C(C)(C)NC(=O)OCc1ccccc1)C(=O)O (Cbz-[Aib]-[Aib]-OH) | > 100 | > 100 | > 100 | > 100 | – | > 100 | > 100 | > 100 | – | > 100 | –
18 | CCc1n[nH]c(=O)[nH]1 | > 100 | > 100 | – | – | > 100 | > 100 | > 100 | > 100 | – | > 100 | > 100
19 | O=c1onc(Nc2ccccc2)n1-c1ccccc1 | > 100 | > 100 | > 100 | > 100 | > 100 | > 100 | > 100 | > 100 | – | – | > 100
20 | Cc1ccc(S(=O)(=O)N/N=C\c2c3ccccc3[n+](C)c3ccccc23)cc1 | 52.7 | > 100 | 60.1 | > 100 | 43.6 | > 100 | 97.4 | > 100 | – | – | –
